≈ marks a conversion by molar mass, not a printed value.
Details: buffer; pH 7.4; 200.0 µM

Compound	solubility kinetic [µg/mL]
CCCN1CCC(NC(=S)Nc2ccc(OC)c(OC)c2)CC1	> 50.6
CC(NC(=O)c1cccc(F)c1)C1CC2CCC1C2 (centres undefined)	19.9 (≈ 76.1 µM)
Cc1ccc(N2C(=O)CC(N3CCc4ccccc43)C2=O)cc1Cl (centres undefined)	< 0.4
CCOc1ccc(N2C(=O)CC(NCC3CCCO3)C2=O)cc1 (centres undefined)	> 47.8
COc1ccc(S(=O)(=O)NCCCc2ccccc2)cc1	40.8 (≈ 134 µM)
Cc1cc(C)c2c(N)c(C(=O)N3CCc4ccccc4C3)sc2n1	5.5 (≈ 16.3 µM)
Cc1ccc(S(=O)(=O)NCC(=O)OCCOc2ccccc2F)cc1	21.5 (≈ 58.5 µM)
Cl.Clc1cccc(OCCn2ccnc2)c1	> 38.9
CN(C(=O)COc1ncnc2sccc12)C1CCCCC1	> 45.8
COC(=O)C1(C(C[N+](=O)[O-])c2ccc(C)cc2)C(=O)NCC1c1ccco1 (centres undefined)	> 55.9
COc1ccccc1C(=O)NC(=O)COC(=O)CNC(=O)c1ccccc1F	> 58.3
O=C(O)/C=C/C(=O)Nc1ccc(OCc2ccccc2)cc1	> 44.6
COc1ccc(CNc2ncnc3sccc23)cc1	> 40.7
O=C(O)C1C2C=CC(C2)C1C(=O)NCCCN1CCCC1=O (centres undefined)	44.2 (≈ 144 µM)
COc1cccc(C(=O)OCC(=O)NCC2CCCO2)c1 (centres undefined)	> 44
CC1(C)Cc2cccc(C(=O)NCc3ccco3)c2O1	32.9 (≈ 121 µM)
O=C(NC(=S)Nc1ccccc1Cl)c1ccco1	2.5 (≈ 8.91 µM)
Cc1cnc(C(=O)NC(Cc2ccccc2)c2ccccc2)cn1 (centres undefined)	0.9 (≈ 2.84 µM)
Cc1ccc(/C=C2\C(=O)NC(=S)N(c3cccc(F)c3)C2=O)o1	43.1 (≈ 130 µM)
COc1ccc2[nH]cc(CCNC(=O)c3ccc4ccccc4n3)c2c1	1.6 (≈ 4.63 µM)
COCCCNC(=S)Nc1ccc(C)cc1	> 35.8

Compound	solubility kinetic [µg/mL]
O=C(NCc1ccc(F)cc1F)Nc1cnccc1C(F)(F)F	> 49.7
CC1C(=O)Nc2ccccc2N1C(=O)c1c(F)cccc1F (centres undefined)	> 45.3
CCOc1cc(C(=O)Nc2ccc(N3CCOCC3)cc2)cc(Br)c1OC	2 (≈ 4.59 µM)
CS(=O)(=O)Nc1ccc(Oc2ncccn2)cc1	> 39.8
COc1cc(C(=O)Nc2ccn(C)n2)ccc1OC(F)F	> 44.6
Cc1c(C)c(C)c2[nH]c(-c3ccc4c(c3)OCO4)nc2c1C	< 0.3
CC(=O)N1CCC(C(=O)Nc2cc(C)cc(C)c2)CC1	> 41.2
Cc1nc2ccc(Cl)cc2c(=O)n1-c1ccc([N+](=O)[O-])cc1	3.7 (≈ 11.7 µM)
CC1CC(C)CN(C(=O)C(C)N(C)CC(=O)Nc2ccccc2Cl)C1 (centres undefined)	> 54.9
Cc1ccc2nc(SCC3CCCCO3)[nH]c2c1 (centres undefined)	37.4 (≈ 143 µM)
O=C(OCC(=O)N1CCOCC1)c1ccc(Br)cc1	> 49.2
CCCNC(=O)COC(=O)/C=C/c1ccc(C)o1	> 37.7
O=C1CCCN1C(=O)COc1cc(F)ccc1[N+](=O)[O-]	> 42.3
CCOc1ccc(S(=O)(=O)NCCc2ccccn2)cc1	> 46
COc1ccc(OC)c(NC(=O)CCOc2cccc(C)c2)c1	23 (≈ 72.9 µM)
Cc1cc(C)cc(Nc2nc3ccccc3c(=O)[nH]2)c1	0.2 (≈ 0.754 µM)
CC(=O)NC(CSc1cc(C)nc2ccc(Br)cc12)C(=O)O (centres undefined)	57.2 (≈ 149 µM)
O=C(Nc1nccs1)c1ccc(Cl)nc1	> 36
CC(=O)C1=C(O)C(=O)N(c2ccc(O)cc2)C1c1ccc(C)cc1 (centres undefined)	> 48.5
CCOC(=O)c1c(C)[nH]c(-c2csc(C)n2)c1C	27.5 (≈ 104 µM)
Cc1ccc(C(=O)Nc2ccc(N3CCN(C)CC3)cc2)c(Cl)c1	> 51.6

Compound	solubility kinetic [µg/mL]
CCCN1CNc2c(c(=O)[nH]c(=S)n2CCc2ccccc2)C1	1.7 (≈ 5.14 µM)
CC(C)N(Cc1ccccc1)C(=S)NC1CCCCC1	13.1 (≈ 45.1 µM)
CCC(C(=O)NCc1ccc(C)cc1)c1ccccc1 (centres undefined)	20.2 (≈ 75.6 µM)
CCOC(=O)c1c(C)nsc1NC(=O)C1CCCCC1	8.3 (≈ 28 µM)
O=C(Nc1ccon1)Nc1ccc(Cl)cc1Cl	1.6 (≈ 5.88 µM)
O=C(Cc1ccc([N+](=O)[O-])cc1)NC(C(=O)[O-])C(O)c1cccc([N+](=O)[O-])c1.[Na+] (centres undefined)	> 61.7
N#C/C(=C\c1c[nH]c2ccccc12)C(=O)NC1CC1	11.4 (≈ 45.4 µM)
NC(=O)c1ccc(N2CCN(S(=O)(=O)c3cccs3)CC2)c([N+](=O)[O-])c1	2.3 (≈ 5.8 µM)
N#Cc1cccc(C(=O)Nc2cccc(S(=O)(=O)N3CCCC3)c2)c1	5.8 (≈ 16.3 µM)
Cc1ccc2nc3c(c(Nc4ccccc4)c2c1)CCC3.Cl	35
Cc1ccc(C(=O)N2CCN(c3nc4ccccc4n3C)CC2)cc1	> 50.2
CCN(CC)CC1C(=O)N(c2ccc(OC)cc2)C1c1ccccc1 (centres undefined)	> 50.8
O=C(c1cc(-c2ccc(F)cc2)nc2ccccc12)N1CCC1	> 46
O=C(O)c1ccc(N=Cc2c(O)ccc3oc4c(c23)CCCC4)cc1	> 50.3
O=C(Nc1ccc(NC(=O)c2ccccc2F)cn1)c1ccco1	8.4 (≈ 25.8 µM)
Cc1ccc(NC(=O)COC(=O)CC2CC3CCC2C3)cc1S(=O)(=O)N1CCOCC1 (centres undefined)	10.2 (≈ 22.6 µM)
COc1ccccc1C1CCN(Cc2cccc([N+](=O)[O-])c2)CC1	16.4 (≈ 50.2 µM)
O=c1c2cc([N+](=O)[O-])ccc2nc2n1CCC2	> 34.7
COc1cccc(CNC(=O)CCCc2c[nH]c3ccccc23)c1	47 (≈ 146 µM)
Cc1ccc(CN(Cc2ccco2)C(=S)NCC(=O)NC2CC2)cc1	47.2 (≈ 132 µM)
O=C(c1ccc([N+](=O)[O-])cc1)N1CCC(Cc2ccccc2)CC1	27.5 (≈ 84.8 µM)

Compound	solubility kinetic [µg/mL]
Cc1cc(SCc2ccc(C(F)(F)F)cc2)nc(=O)[nH]1	7.5 (≈ 25 µM)
O=c1[nH]c(=O)n(C2OC(CO)C(O)C2O)cc1Br (centres undefined)	> 48.5
O=[N+]([O-])c1cccc(CN2CCN(c3ncccn3)CC2)c1	32.2 (≈ 108 µM)
CN(CC(=O)NCCCn1ccnc1)S(=O)(=O)c1ccc(Cl)cc1	> 55.6
CCC(=NCC1CCCO1)c1c(O)n(-c2ccccc2C)c(=O)[nH]c1=O (centres undefined)	> 53.6
O=C(NC1CCCCC1)c1ccc2c(c1)OCO2	> 37.1
N#Cc1cccc(CN2C=NS(=O)(=O)c3ccccc32)c1	42.2 (≈ 142 µM)
COc1ccccc1CN(C)C(=O)COC(=O)c1c(C)noc1C	> 49.9
COc1cccc(CN2CCN(Cc3cccc(F)c3)CC2)c1.O=C(O)C(=O)O	46.5
CC(C)CN1C(=O)C(=O)N(CC(=O)c2ccc3c(c2)CCCC3)C1=O	47.2 (≈ 138 µM)
Cc1cc(C)c(C)c(OCCCCN2CCCCC2)c1	29.4 (≈ 107 µM)
O=[N+]([O-])c1ccccc1/C=C/CN1CCCCC1CO (centres undefined)	34.3 (≈ 124 µM)
CCCCn1c(=O)c(C(=O)NCc2ccco2)c(O)c2ccccc21	< 0.4
N#Cc1ccc(Oc2ccc(NC(=O)C3CC=CCC3C(=O)O)cc2)cc1 (centres undefined)	> 54.4
COC(=O)/C=C1\N/C(=N\c2nc(C)cc(C)n2)N(c2ccccc2)C1=O	> 52.7
Cc1nn(CC(=O)NCCc2ccccc2)c(=O)c2cccn12	> 46.6
Cn1c(O)c(C=Nc2ccc(Br)cc2)sc1=O	< 0.3
Cc1ccc(N2CC(=O)Nc3c(oc4nc(-c5ccccc5)cc(C)c34)C2=O)cc1	< 0.3
O=C(NC1CCCC1)c1cc(-c2ccccc2)on1	4 (≈ 15.6 µM)
CN(C)Cc1ccccc1Sc1ccc2c(c1)CCCC2.O=C(O)C(=O)O	5.5
O=C(c1cccs1)N1CCN=C1SCc1cccc(F)c1	< 0.3

From PubChem BioAssay AID1996
